Experimental data from patent US20070117743A1, “New antitumoral compounds” (priority 2003, published 2007).
Where a SMILES comes first, the peptide text is derived from it. Bridges are numbered along the chain shown (N, C = ends). [ ]: non-standard residue; d: D form. The star is where a group is joined. d(aIle) = CC[C@H](C)[C@@H](N)C(=O)O; d(aThr) = C[C@@H](O)[C@@H](N)C(=O)O; Hexanoyl(5-Me) = CC(C)CCCC(=O)*; Orn = NCCC[C@H](N)C(=O)O; Dhb = C/C=C(\N)C(=O)O

Columns and labels:
Assay type in all cases: cell-based, human
K-562 = test: SRB colorimetric assay of cell growth and viability, K-562; conditions: 48 hours exposure; for CC50: read-out: LC50 K-562
HeLa = test: SRB colorimetric assay of cell growth and viability, HeLa; conditions: 48 hours exposure; for CC50: read-out: LC50 HELA
SK-BR-3 = test: SRB colorimetric assay of cell growth and viability, SK-BR-3; conditions: 48 hours exposure
LoVo = test: SRB colorimetric assay of cell growth and viability, LoVo; conditions: 48 hours exposure; for CC50: read-out: LC50 LOVO
IGROV-1 = test: SRB colorimetric assay of cell growth and viability, IGROV-1; conditions: 48 hours exposure
PANC-1 = test: SRB colorimetric assay of cell growth and viability, PANC-1; conditions: 48 hours exposure; for CC50: read-out: LC50 PANC-1
HeLa-APL = test: SRB colorimetric assay of cell growth and viability, HeLa-APL; conditions: 48 hours exposure; for CC50: read-out: LC50 HELA-APL
SK-MEL-28 = test: SRB colorimetric assay of cell growth and viability, SK-MEL-28; conditions: 48 hours exposure; for CC50: read-out: LC50 MEL-28
HT-29 = test: SRB colorimetric assay of cell growth and viability, HT-29; conditions: 48 hours exposure; for GI50: read-out: GI50 HT-29; for CC50: read-out: LC50 HT-29
IGROV-ET = test: SRB colorimetric assay of cell growth and viability, IGROV-ET; conditions: 48 hours exposure; for CC50: read-out: LC50 IGROV-ET
LNCaP = test: SRB colorimetric assay of cell growth and viability, LNCaP; conditions: 48 hours exposure; for GI50: read-out: GI50 LN-caP; for CC50: read-out: LC50 LN-caP
Source text: The finality of this assay is to interrupt the growth of a “in vitro” tumor cell culture by means a continued exhibition of the cells to the sample to be testing.
This form of the assay employs 96 well cell culture microplates of 9 mm diameter (Faircloth, 1988; Mosmann, 1983). Most of the cell lines are obtained from American Type Culture Collection (ATCC) derived from different human cancer types.
Cells are maintained in RPMI 1640 10% FBS, supplemented with 0.1 g/l penicillin and 0.1 g/l streptomycin sulfate and then incubated at 37° C., 5% CO2 and 98% humidity. For the experiments, cells were harvested from subconfluent cultures using trypsin and resuspended in fresh medium before plating.
Cells are seeded in 96 well microtiter plates, at 5×10^3 cells per well in aliquots of 195 μL medium, and they are allowed to attach to the plate surface by growing in drug free medium for 18 hours. Afterward, samples are added in aliquots of 5 μL in a ranging from 10 to 10^−8 μg/mL, dissolved in DMSO:EtOH:PBS (0.5:0.5:99). After 48 hours exposure, the antitumor effect are measured by the SRB methodology: cells are fixed by adding 50 μL of cold 50% (wt/vol) trichloroacetic acid (TCA) and incubating for 60 minutes at 4° C. Plates are washed with deionized water and dried. One hundred μL of SRB solution (0.4% wt/vol in 1% acetic acid) is added to each microtiter well and incubated for 10 minutes at room temperature. Unbound SRB is removed by washing with 1% acetic acid. Plates are air dried and bound stain is solubilized with Tris buffer. Optical densities are read on a automated spectrophotometric plate reader at a single wavelength of 490 nm.
The values for mean+/− SD of data from triplicate wells are calculated. Some parameters for cellular responses can be calculated: GI=growth inhibition, TGI=total growth inhibition (cytostatic effect) and LC=cell killing (cytotoxic effect).

A-549 = test: SRB colorimetric assay of cell growth and viability, A-549; conditions: 48 hours exposure; for GI50: read-out: GI50 A-549; for CC50: read-out: LC50 A-549
DU-145 = test: SRB colorimetric assay of cell growth and viability, DU-145; conditions: 48 hours exposure

`C/C=C1\NC(=O)[C@H](Cc2ccccc2)NC(=O)[C@@H](C(C)C)NC(=O)[C@@H]([C@@H](C)CC)NC(=O)[C@H](NC(=O)[C@H](NC(=O)[C@H](CCCN)NC(=O)[C@H]2CCCN2C(=O)[C@H](NC(=O)[C@@H](NC(=O)[C@@H](NC(=O)[C@H](NC(=O)CCCNC(=N)N)C(C)C)[C@@H](C)O)C(C)C)C(C)C)[C@@H](C)CC)[C@@H](C)OC(=O)[C@H](C(C)C)NC1=O` [Compound 29, [4-GuBut^14]-KF] was tested, and the GI50 (K-562) was 6.7 µM, the “TGI K-562” value (K-562) was 6.70E−06 Molar and the CC50 (K-562) was 6.7 µM. The GI50 (HeLa) was 6.7 µM, the “TGI HELA” value (HeLa) was 6.70E−06 Molar and the CC50 (HeLa) was 6.7 µM. For the same compound, the GI50 (SK-BR-3) was 6.7 µM, the LC50 (SK-BR-3) was 6.7 µM and the “TGI SK-BR-3” value (SK-BR-3) was 6.70E−06 Molar. The GI50 (LoVo) was 5.45 µM, the “TGI LOVO” value (LoVo) was 6.70E−06 Molar and the CC50 (LoVo) was 6.7 µM. For the same compound, the GI50 (IGROV-1) was 6.7 µM, the LC50 (concentration causing 50% net cell killing) (IGROV-1) was 6.7 µM and the “TGI IGROV” value (IGROV-1) was 6.70E−06 Molar. For the same compound, the GI50 (PANC-1) was 6.7 µM, the “TGI PANC-1” value (PANC-1) was 6.70E−06 Molar and the CC50 (PANC-1) was 6.7 µM. For the same compound, the GI50 (HeLa-APL) was 6.7 µM, the “TGI HELA-APL” value (HeLa-APL) was 6.70E−06 Molar and the CC50 (HeLa-APL) was 6.7 µM. The GI50 (SK-MEL-28) was 6.7 µM, the “TGI MEL-28” value (SK-MEL-28) was 6.70E−06 Molar and the CC50 (SK-MEL-28) was 6.7 µM. For the same compound, the “TGI HT-29” value (HT-29) was 6.70E−06 Molar, the GI50 (HT-29) was 6.7 µM and the CC50 (HT-29) was 6.7 µM. For the same compound, the GI50 (IGROV-ET) was 6.7 µM, the “TGI IGROV-ET” value (IGROV-ET) was 6.70E−06 Molar and the CC50 (IGROV-ET) was 6.7 µM. For the same compound, the “TGI LN-caP” value (LNCaP) was 6.70E−06 Molar, the GI50 (LNCaP) was 3.91 µM and the CC50 (LNCaP) was 6.7 µM. The “TGI A-549” value (A-549) was 6.70E−06 Molar, the GI50 (A-549) was 6.7 µM and the CC50 (A-549) was 6.7 µM. For the same compound, the GI50 (DU-145) was 6.7 µM, the LC50 (concentration causing 50% net cell kill) (DU-145) was 6.7 µM and the “TGI DU-145” value (DU-145) was 6.70E−06 Molar.

In the case of `C/C=C1\NC(=O)[C@H](Cc2ccccc2)NC(=O)[C@@H](C(C)C)NC(=O)[C@@H]([C@@H](C)CC)NC(=O)[C@H](NC(=O)[C@H](NC(=O)[C@H](CCCN)NC(=O)[C@H]2CCCN2C(=O)[C@H](NC(=O)[C@H](C)NC(=O)[C@@H](NC(=O)[C@H](NC(=O)CCCC(C)C)C(C)C)[C@@H](C)O)C(C)C)[C@@H](C)CC)[C@@H](C)OC(=O)[C@H](C(C)C)NC1=O` [Compound 44, [Ala^11]-KF] ({Hexanoyl(5-Me)}-[dV]TA[dV][dP][Orn][d(aIle)][d(aThr)][d(aIle)][dV]F[Dhb]V; ester 8-C), the GI50 (K-562) is reported as 3.06 µM, the “TGI K-562” value (K-562) is reported as 6.90E−06 Molar and the CC50 (K-562) is reported as 6.9 µM. The GI50 (HeLa) was 2.85 µM, the “TGI HELA” value (HeLa) was 6.90E−06 Molar and the CC50 (HeLa) was 6.9 µM. The GI50 (SK-BR-3) was 1.19 µM, the LC50 (SK-BR-3) was 5.3 µM and the “TGI SK-BR-3” value (SK-BR-3) was 2.52E−06 Molar. The GI50 (LoVo) was 0.973 µM, the “TGI LOVO” value (LoVo) was 2.03E−06 Molar and the CC50 (LoVo) was 4.23 µM. The GI50 (IGROV-1) was 1.43 µM, the LC50 (concentration causing 50% net cell killing) (IGROV-1) was 5.72 µM and the “TGI IGROV” value (IGROV-1) was 2.86E−06 Molar. The GI50 (PANC-1) was 6.9 µM, the “TGI PANC-1” value (PANC-1) was 6.90E−06 Molar and the CC50 (PANC-1) was 6.9 µM. For the same compound, the GI50 (HeLa-APL) was 3.18 µM, the “TGI HELA-APL” value (HeLa-APL) was 6.90E−06 Molar and the CC50 (HeLa-APL) was 6.9 µM. The GI50 (SK-MEL-28) was 3.69 µM, the “TGI MEL-28” value (SK-MEL-28) was 6.90E−06 Molar and the CC50 (SK-MEL-28) was 6.9 µM. For the same compound, the “TGI HT-29” value (HT-29) was 2.61E−06 Molar, the GI50 (HT-29) was 1.34 µM and the CC50 (HT-29) was 5.08 µM. The GI50 (IGROV-ET) was 1.5 µM, the “TGI IGROV-ET” value (IGROV-ET) was 2.95E−06 Molar and the CC50 (IGROV-ET) was 5.77 µM. The GI50 (LNCaP) was 2.78 µM, the CC50 (LNCaP) was 6.9 µM and the “TGI A-549” value (A-549) was 6.90E−06 Molar. For the same compound, the GI50 (A-549) was 2.69 µM, the CC50 (A-549) was 6.9 µM and the GI50 (DU-145) was 3.03 µM. The LC50 (concentration causing 50% net cell kill) (DU-145) was 6.9 µM and the “TGI DU-145” value (DU-145) was 6.90E−06 Molar.
